Experimental data as given in the NIST ThermoML archive (doi:10.1016/j.fluid.2010.01.027).
Numbers after ± are expanded uncertainties.

Assay: wn = mass fraction of the nth substance listed
Conditions: Gas, sonar gas analyzer

FC(F)(F)C(F)(F)C(F)(F)F [octafluoropropane] + FC(F)(F)C(F)(F)C(F)(F)C(F)(F)F
speed of sound [m/s]
Conditions | w1 = 0.397 | w1 = 0.83
248.2 K, 10 kPa | – | 105.12 ± 1.2
248.2 K, 13 kPa | – | 105.03 ± 1.2
248.2 K, 20 kPa | – | 104.84 ± 1.2
248.2 K, 27 kPa | – | 104.58 ± 1.2
248.2 K, 30 kPa | – | 104.45 ± 1.2
248.2 K, 33 kPa | – | 104.36 ± 1.2
248.2 K, 40 kPa | – | 104.12 ± 1.2
248.2 K, 47 kPa | – | 103.84 ± 1.2
248.2 K, 50 kPa | – | 103.75 ± 1.2
248.2 K, 53 kPa | – | 103.57 ± 1.2
248.2 K, 60 kPa | – | 103.27 ± 1.2
248.2 K, 67 kPa | – | 103.07 ± 1.2
259.2 K, 10 kPa | 102.59 ± 1.2 | 107.4 ± 1.2
259.2 K, 20 kPa | 102.16 ± 1.2 | 107.18 ± 1.2
259.2 K, 30 kPa | 101.68 ± 1.2 | 106.95 ± 1.2
259.2 K, 50 kPa | 101.06 ± 1.2 | 106.3 ± 1.2
259.2 K, 70 kPa | 100.12 ± 1.2 | 105.81 ± 1.2
259.2 K, 100 kPa | – | 104.56 ± 1.2
259.2 K, 150 kPa | – | 102.68 ± 1.2
259.2 K, 200 kPa | – | 101.95 ± 1.2
271.3 K, 10 kPa | – | 109.58 ± 1.2
271.3 K, 20 kPa | – | 109.17 ± 1.2
271.3 K, 30 kPa | – | 108.68 ± 1.2
271.3 K, 50 kPa | – | 107.95 ± 1.2
271.3 K, 70 kPa | – | 107.66 ± 1.2
271.3 K, 100 kPa | – | 106.4 ± 1.2
271.3 K, 150 kPa | – | 104.9 ± 1.2
271.3 K, 200 kPa | – | 103.44 ± 1.2
271.3 K, 250 kPa | – | 102.59 ± 1.2
271.4 K, 10 kPa | 104.64 ± 1.2 | –
271.4 K, 20 kPa | 104.3 ± 1.2 | –
271.4 K, 30 kPa | 103.82 ± 1.2 | –
271.4 K, 50 kPa | 103.1 ± 1.2 | –
271.4 K, 70 kPa | 102.4 ± 1.2 | –
271.4 K, 100 kPa | 101.14 ± 1.2 | –
271.4 K, 150 kPa | 99.12 ± 1.2 | –
283.1 K, 10 kPa | 106.56 ± 1.2 | 112.12 ± 1.2
283.1 K, 20 kPa | 106.36 ± 1.2 | 111.72 ± 1.2
283.1 K, 30 kPa | 105.98 ± 1.2 | 111.47 ± 1.2
283.1 K, 50 kPa | 105.5 ± 1.2 | 111.19 ± 1.2
283.1 K, 70 kPa | 104.76 ± 1.2 | 110.59 ± 1.2
283.1 K, 100 kPa | 103.71 ± 1.2 | 109.75 ± 1.2
283.1 K, 150 kPa | 101.86 ± 1.2 | 108.4 ± 1.2
283.1 K, 200 kPa | 100.08 ± 1.2 | 106.92 ± 1.2
283.1 K, 250 kPa | – | 105.34 ± 1.2
283.1 K, 297 kPa | – | 103.72 ± 1.2
283.1 K, 350 kPa | – | 101.99 ± 1.2
283.1 K, 400 kPa | – | 100.1 ± 1.2
294 K, 10 kPa | 109.01 ± 1.2 | –
294 K, 20 kPa | 108.7 ± 1.2 | –
294 K, 30 kPa | 108.4 ± 1.2 | –
294 K, 50 kPa | 107.67 ± 1.2 | –
294 K, 70 kPa | 107.07 ± 1.2 | –
294 K, 100 kPa | 106.22 ± 1.2 | –
294 K, 150 kPa | 104.61 ± 1.2 | –
294 K, 200 kPa | 103.01 ± 1.2 | –
294.1 K, 10 kPa | – | 114.96 ± 1.2
294.1 K, 20 kPa | – | 114.62 ± 1.2
294.1 K, 30 kPa | – | 114.35 ± 1.2
294.1 K, 50 kPa | – | 113.75 ± 1.2
294.1 K, 70 kPa | – | 113.21 ± 1.2
294.1 K, 100 kPa | – | 112.3 ± 1.2
294.1 K, 150 kPa | – | 111 ± 1.2
294.1 K, 200 kPa | – | 109.85 ± 1.2
301.4 K, 10 kPa | – | 116.15 ± 1.2
301.4 K, 20 kPa | – | 116.05 ± 1.2
301.4 K, 30 kPa | – | 115.78 ± 1.2
301.4 K, 50 kPa | – | 115.29 ± 1.2
301.4 K, 70 kPa | – | 114.72 ± 1.2
301.4 K, 100 kPa | – | 114.03 ± 1.2
301.4 K, 150 kPa | – | 112.72 ± 1.2
301.4 K, 200 kPa | – | 111.59 ± 1.2
302.1 K, 10 kPa | 110.14 ± 1.2 | –
302.1 K, 20 kPa | 109.74 ± 1.2 | –
302.1 K, 30 kPa | 109.67 ± 1.2 | –
302.1 K, 50 kPa | 109.29 ± 1.2 | –
302.1 K, 70 kPa | 108.73 ± 1.2 | –
302.1 K, 100 kPa | 107.89 ± 1.2 | –
